The values below come from US20040248991A1, “Compositions for lessening oxidative stress” (priority 2001, published 2004).

One data set has as its system rats. To be noted: continuous administration, 1200 mg/kg/day for 52 weeks; cited from earlier work.
Data set [1] concerns spleen tissues of GK rats. The data set is described as follows: Tissue protecting effect on spontaneously diabetic rat (histopathological evaluation of spleen tissue denaturation). It counts as in vivo. To be noted: oral administration for 7 weeks, spleen histopathology, four examples per group. As for the experimental part:
The protective effect of each of oxidized coenzyme Q10 and reduced coenzyme Q10 (containing about 2% by weight of oxidized coenzyme Q10) on denaturation of the spleen tissues of GK rats by using the same test system as in Example 1. As a control, a soybean oil solution not containing coenzyme Q10 was orally administered. After the coenzyme Q10 was administered for 7 weeks, the spleen was extracted from each rat, and the degree of tissue denaturation was histopathologically evaluated.
The tissue protecting effect of vitamin E was evaluated by the same method as in Example 4.

For data set [2], the system named is urinary 8OH-dG. The data set is described as follows: Oxidative stress lessening effect on normal rat (urinary 8OH-dG by ELISA). To be noted: SD rats, oral soybean oil solution, 100 mg/kg/day for 4 weeks. It counts as in vivo. The protocol:
(§1) The effect of lessening oxidative stress in vivo was evaluated with urinary 8-hydroxydeoxyguanosine (8OH-dG) having high effectiveness as an oxidative stress marker. This material results from nucleic acid damage due to oxidative stress, and is discharged into urine without undergoing further metabolism. It is thus thought that the amount of oxidative stress in vivo and the amount of 8OH-dG discharged have a close relationship therebetween. A decrease in amount of the material in urine means a reduction in oxidative stress in vivo and the prevention of damage to nucleic acid.
A soybean oil solution of oxidized coenzyme Q10 or reduced coenzyme Q10 (containing about 2% of oxidized coenzyme Q10) was orally administered to SD rats (6-week old, male) in a dose of 100 mg/kg/day for 4 weeks. 4 weeks after, urine was collected, and the amount of urinary 8OH-dG was determined by an ELISA kit (Japan Institute for the Control of Aging).

Data set [3] deals with urinary 8OH-dG. The data set is described as follows: Oxidative stress lessening effect on spontaneously diabetic mouse (urinary 8OH-dG). It counts as in vivo. To be noted: KK-Ay mice, 4 weeks. As for the experimental part: as §1
The dose dependency of the oxidative stress lessening effect of each of reduced and oxidized coenzyme Q10 was evaluated by the same method as that used for GK rats except that KK-Ay mice with spontaneous diabetes and having a higher blood sugar level than that of GK rats were used. KK-Ay 5-week old male mice were used, and evaluated in groups in each of which n=11. Oxidized coenzyme Q10 or reduced coenzyme Q10 (containing about 2% by weight of oxidized coenzyme Q10) was mixed with a purified feed (produced by CLEA JAPAN, INC.) at each of ratios of 0.02% by weight, 0.1% by weight, and 0.5% by weight, and each mixture was freely given to the KK-Ay mice. In a control group, the purified feed not containing coenzyme Q10 was freely given to rats. 4 weeks after the supply, urine was collected, and the amount of urinary 8OH-dG was determined by the same method as in Example 1. […] In the reduced coenzyme Q10 administration group, with a dose of 0.02% by weight, the lessening effect was low (82% of the control group), while with a dose of 0.1% by weight or more, the lessening effect was significant (dose of 0.1% by weight: 73% of the control group, dose of 0.5% by weight: 56% of the control group). In the oxidized coenzyme Q10 administration group, the dose-dependent lessening effect was observed without showing a significant difference, and with a dose of 0.5% by weight, the amount of urinary 8OH-dG was 78% of that of the control group.

The conditions of data set [4]: cited from earlier work.
Data set [5] concerns urinary 8OH-dG. Put plainly: Oxidative stress lessening effect on spontaneously diabetic rat (urinary 8OH-dG). To be noted: GK rats, 0.1% by weight in feed. The class given is in vivo. The protocol:
as §1
The oxidative stress lessening effect of each of reduced and oxidized coenzyme Q10 in vivo was evaluated by using GK rats with spontaneous diabetes which induced spleen tissue denaturation due to oxidative stress in vivo. A feed (CE-2, produced by CLEA JAPAN, INC.) containing 0.1% by weight of reduced coenzyme Q10 (containing about 2% by weight of oxidized coenzyme Q10) or oxidized coenzyme Q10 was freely given to GK rats (5-week old, male, n=4 in each group). In a control group, the feeds not containing coenzyme Q10 was freely given to the rats. 2 weeks and 4 weeks after, urine was collected, and the amount of urinary 8OH-dG was determined by the same method as in Example 1. […] In the oxidized coenzyme Q10 administration group, the amount of urinary 8OH-dG measured 2 weeks after the administration was decreased to 58% of the control group, and the amount of urinary 8OH-dG measured 4 weeks after the administration was deceased to 52% of the control group.
The oxidative stress lessening effect of a typical antioxidant, vitamin E, was evaluated by using GK rats in the same test system as in Example 2. Like coenzyme Q10, vitamin E was mixed with a feed at a ratio of 0.1% by weight, and the resulting foodstuff was freely given to the GK rats. 2 weeks and 4 weeks after the feeding, the amount of urinary 8OH-dG was determined. […] In comparison to the coenzyme Q10 administration group of Example 2, 2 weeks after, the decreasing effect in Reference Example 1 was lower the effects of both the reduced form and the oxidized form in Example 2, and 4 weeks after, the effect was at the same level as that of the oxidized coenzyme Q10 and lower than that of the reduced coenzyme Q10 in Example 2.

In another data set the test system is kidney dialysis patients. To be noted: daily dose of 800 IU; cited from earlier work.
[6] abbreviates: listed as Oxidized coenzyme Q10.
Setting [7] is: 2 weeks after the administration.
Setting [8] is: 4 weeks after the administration.

Take `COC1=C(OC)C(=O)C(C/C=C(\C)CC/C=C(\C)CC/C=C(\C)CC/C=C(\C)CC/C=C(\C)CC/C=C(\C)CC/C=C(\C)CC/C=C(\C)CC/C=C(\C)CCC=C(C)C)=C(C)C1=O` [coenzyme Q10]: the “toxic effect in chronic toxicity test” value with rats was “no toxic effect was observed”.

As to `COC1=C(OC)C(=O)C(C/C=C(\C)CC/C=C(\C)CC/C=C(\C)CC/C=C(\C)CC/C=C(\C)CC/C=C(\C)CC/C=C(\C)CC/C=C(\C)CC/C=C(\C)CCC=C(C)C)=C(C)C1=O` [oxidized coenzyme Q10], in data set [1], the “Number of examples with finding: Islet fibrillation 1+” value (shortened to “Number … Islet fibrillation 1+”) is on record as “two”, the “Number of examples with finding: Islet fibrillation 2+” value (from here on “Number … Islet fibrillation 2+”) was “two” and the “Number of examples with finding: Normal” value was 0. In data set [1] (setting [6]), the “Number … Islet fibrillation 1+” value is listed as 2 and the “Number … Islet fibrillation 2+” value is given as 2. Besides, the “amount of urinary 8OH-dG relative to solvent control group (assumed as 100%)” value in the data set with urinary 8OH-dG [2] was “about 60%”. The “amount of urinary 8OH-dG relative to control group” value with urinary 8OH-dG [3] (0.5% by weight in feed) amounted to 78%. Besides, in data set [4], the “antioxidative activity in vitro” value was “exhibits no antioxidative activity”. For the same molecule, in the data set on urinary 8OH-dG [5] (setting [7]), the “amount of urinary 8OH-dG relative to control group (assumed as 100%)” value is 58%. Besides, the “amount of urinary 8OH-dG relative to control group (assumed as 100%)” value in the data set on urinary 8OH-dG [5] (setting [8]) turned out to be 52%.

Regarding `COc1c(O)c(C)c(C/C=C(\C)CC/C=C(\C)CC/C=C(\C)CC/C=C(\C)CC/C=C(\C)CC/C=C(\C)CC/C=C(\C)CC/C=C(\C)CC/C=C(\C)CCC=C(C)C)c(O)c1OC` [reduced coenzyme Q10], the “Number … Islet fibrillation 1+” value in data set [1] is listed as “tree”; in data set [1] (listed as Reduced coenzyme Q10), 3. For the same molecule, the figures for the “Number … Islet fibrillation 2+” value in data set [1] and in data set [1] (listed as Reduced coenzyme Q10) were “one” and 1, respectively. Besides, the “Number of examples with finding: Normal” value in data set [1] amounted to 0. Besides, the “amount of urinary 8OH-dG relative to solvent control group (assumed as 100%)” value with urinary 8OH-dG [2] is on record as “about 40%”. In addition, the “amount of urinary 8OH-dG relative to control group” value in the data set with urinary 8OH-dG [3] (0.02% by weight in feed) is reported as 82%; in the data set with urinary 8OH-dG [3] (0.1% by weight in feed), 73%; in the data set with urinary 8OH-dG [3] (0.5% by weight in feed) it was 56%. Besides, the “antioxidative activity in vitro” value in data set [4] is listed as “exhibits antioxidative activity in vitro”. Besides, the “amount of urinary 8OH-dG relative to control group (assumed as 100%)” value in the data set with urinary 8OH-dG [5] (setting [7]) was “about 40%”; with urinary 8OH-dG [5] (setting [8]), “kept at the same level”.

As for vitamin E [reference compound], in data set [1], the “Number … Islet fibrillation 1+” value is listed as “two”, the “Number … Islet fibrillation 2+” value was “two” and the “Number of examples with finding: Normal” value is given as 0. Moreover, in data set [1] (listed as VE), the “Number … Islet fibrillation 1+” value came to 2 and the “Number … Islet fibrillation 2+” value stood at 2. Besides, in the data set with kidney dialysis patients, the “increase of risk of brain hemorrhage as a side effect” value is 63% and the “patients died from hemorrhagic diseases” value is recorded as “two”. In the data set with urinary 8OH-dG [5] (setting [7]), the “amount of urinary 8OH-dG relative to control group (assumed as 100%)” value was “about 80%”. Moreover, the “amount of urinary 8OH-dG relative to control group (assumed as 100%)” value in the data set on urinary 8OH-dG [5] (setting [8]) is given as 51%.
